Test results published in US12037344B2, “NLRP3 modulators” (INNATE TUMOR IMMUNITY, INC., priority 2018, dated 2024).
Structures can show the parent of a compound that is named as a salt. Where two headings read alike, the source gives them in different places.

Tests used:
TLR7 = biological target: T1, TLR7 (Homo sapiens, UniProt Q9NYK1); assay: In vitro human TLR7 binding reporter assay (HEK-Blue, NF-kB/AP1-inducible SEAP); assay type: cell-based; details: read-out: TLR7 Agonist EC50
T1 construct: human HEK-Blue cells co-expressing a TLR7 or TLR8 gene
T1 sequence (Q9NYK1 27-1049): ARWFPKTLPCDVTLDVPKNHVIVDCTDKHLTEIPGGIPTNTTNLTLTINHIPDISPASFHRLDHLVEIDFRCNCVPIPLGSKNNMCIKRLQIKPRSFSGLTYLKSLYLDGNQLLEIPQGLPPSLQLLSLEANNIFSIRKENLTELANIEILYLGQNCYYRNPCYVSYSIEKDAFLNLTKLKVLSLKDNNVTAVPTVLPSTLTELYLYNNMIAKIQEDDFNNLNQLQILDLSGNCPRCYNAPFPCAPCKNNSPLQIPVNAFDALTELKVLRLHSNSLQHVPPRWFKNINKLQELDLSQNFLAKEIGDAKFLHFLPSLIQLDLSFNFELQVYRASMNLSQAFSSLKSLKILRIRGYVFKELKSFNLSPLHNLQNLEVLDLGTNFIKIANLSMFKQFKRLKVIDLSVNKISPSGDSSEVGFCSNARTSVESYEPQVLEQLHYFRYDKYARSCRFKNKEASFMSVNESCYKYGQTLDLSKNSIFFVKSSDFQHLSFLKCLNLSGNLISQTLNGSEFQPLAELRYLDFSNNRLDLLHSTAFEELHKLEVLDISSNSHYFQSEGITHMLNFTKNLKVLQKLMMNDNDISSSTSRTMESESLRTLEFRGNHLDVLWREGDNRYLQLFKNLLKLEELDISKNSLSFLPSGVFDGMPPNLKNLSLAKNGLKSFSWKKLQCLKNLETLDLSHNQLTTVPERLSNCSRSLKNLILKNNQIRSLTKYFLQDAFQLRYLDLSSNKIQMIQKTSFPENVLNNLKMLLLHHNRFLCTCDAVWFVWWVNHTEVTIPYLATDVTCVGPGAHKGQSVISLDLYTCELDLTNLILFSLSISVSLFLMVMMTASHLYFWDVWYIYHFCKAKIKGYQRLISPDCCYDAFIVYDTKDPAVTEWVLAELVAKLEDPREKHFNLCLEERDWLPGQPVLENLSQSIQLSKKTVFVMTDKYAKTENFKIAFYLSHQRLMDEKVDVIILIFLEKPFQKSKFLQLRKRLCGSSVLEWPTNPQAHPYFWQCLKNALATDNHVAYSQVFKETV
Procedure, shortened: (§1)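 HEK-Blue cells expressing human TLR7 or TLR8 with NF-kB/AP1-inducible SEAP reporter, plated 24 h, then compound-treated 18 h at 37° C, 5% CO2. EC50 normalized to 100% Ymax set by 50 μM reference standard.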

THP-1 cells = assay: Measurement of IL-1β production, hTRF protocol (second alternative procedure), THP-1 cells; assay type: cell-based, human; details: read-out: NLRP3 hILIB EC50
Procedure, shortened: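 THP-1 cells differentiated overnight with 50 ng/ml PMA, then plated at 50,000 cells/well in RPMI with 2% FBS onto serial compound dilutions (top final concentration 10 μM) for 2 hours at 37° C. Supernatant IL-1β measured by hTRF (antibodies at 1:40, overnight at 4° C), read at 665/615 nm against a standard curve.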

TLR8 = biological target: T2, TLR8 (Homo sapiens, UniProt Q9NR97); assay: In vitro human TLR8 binding reporter assay (HEK-Blue, NF-kB/AP1-inducible SEAP); assay type: cell-based; details: read-out: TLR8 Agonist EC50
T2 construct: human HEK-Blue cells co-expressing a TLR7 or TLR8 gene
T2 sequence (Q9NR97 27-1041): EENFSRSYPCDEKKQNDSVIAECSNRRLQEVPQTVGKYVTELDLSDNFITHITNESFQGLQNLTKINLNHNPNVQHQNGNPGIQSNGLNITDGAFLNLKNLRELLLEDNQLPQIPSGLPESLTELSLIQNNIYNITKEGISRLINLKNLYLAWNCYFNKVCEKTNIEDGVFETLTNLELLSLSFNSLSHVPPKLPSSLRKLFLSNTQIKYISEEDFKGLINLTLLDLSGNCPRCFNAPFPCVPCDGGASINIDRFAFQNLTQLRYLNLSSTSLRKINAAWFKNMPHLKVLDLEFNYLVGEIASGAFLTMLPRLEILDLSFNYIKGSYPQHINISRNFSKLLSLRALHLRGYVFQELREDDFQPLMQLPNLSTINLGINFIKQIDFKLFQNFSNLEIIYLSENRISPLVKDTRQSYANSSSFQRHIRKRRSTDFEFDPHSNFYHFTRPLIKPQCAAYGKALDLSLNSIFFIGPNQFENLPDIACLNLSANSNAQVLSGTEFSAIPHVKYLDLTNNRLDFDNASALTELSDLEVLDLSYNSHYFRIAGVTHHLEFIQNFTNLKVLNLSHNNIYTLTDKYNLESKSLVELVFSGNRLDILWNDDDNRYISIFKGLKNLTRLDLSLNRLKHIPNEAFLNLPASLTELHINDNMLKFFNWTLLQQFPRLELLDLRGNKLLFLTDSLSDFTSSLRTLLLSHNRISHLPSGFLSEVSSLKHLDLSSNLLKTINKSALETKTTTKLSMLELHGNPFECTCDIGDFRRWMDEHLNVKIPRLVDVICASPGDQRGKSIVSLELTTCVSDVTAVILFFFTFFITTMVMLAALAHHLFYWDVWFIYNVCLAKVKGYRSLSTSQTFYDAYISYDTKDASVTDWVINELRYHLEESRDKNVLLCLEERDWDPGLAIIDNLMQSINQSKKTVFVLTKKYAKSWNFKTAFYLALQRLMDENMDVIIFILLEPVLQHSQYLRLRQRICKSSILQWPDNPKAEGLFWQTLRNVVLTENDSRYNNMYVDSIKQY
Procedure, shortened: as §1

[1] = Homo sapiens, THP-1, IL-1β production, human
[2] = Homo sapiens, THP-1, IL-1β production, human cells

Row | SMILES | EC50 (TLR7; activity range class) | EC50 (THP-1 cells; [1]) | EC50 (TLR8; activity range class) | EC50 (THP-1 cells; IL-1β production, human) | EC50 (TLR7; activity range) | EC50 (THP-1 cells; [2]) | EC50 (TLR8; activity range)
1 | COc1cccc(C(=O)NCCn2cc3c(n2)c(N)nc2cc(-c4cc[nH]n4)ccc23)n1 [Example 65] | > 100 µM | 0.35 µM | 20 to 100 µM | – | – | – | –
2 | CC(=O)N[C@@H](CO)Cn1cc2c(N)nc3cc(-c4cc[nH]n4)ccc3c2n1 [Example 292] | > 100 µM | 0.89 µM | > 100 µM | – | – | – | –
3 | Nc1nc2cc(-c3cc[nH]n3)ccc2c2nn(C[C@@H]3CCC(=O)N3)cc12 [Example 384] | > 100 µM | 0.88 µM | > 100 µM | – | – | – | –
4 | COC1CN(CCn2cc3c(N)nc4cc(-c5ccn[nH]5)ccc4c3n2)C1 [Example 268] | > 100 µM | 4.5 µM | > 100 µM | – | – | – | –
5 | C[C@@H](CO)Cn1cc2c(N)nc3cc(-c4cc[nH]n4)ccc3c2n1 [Example 332] | > 100 µM | 0.21 µM | > 100 µM | – | – | – | –
6 | Nc1nc2cc(-c3cc[nH]n3)ccc2c2nn(C3CCOC3)cc12 (single isomer, unassigned) [Example 238] | > 100 µM | – | > 100 µM | 0.72 µM | – | – | –
7 | Nc1nc2cc(-c3ccn[nH]3)ccc2c2[nH]c(CC3CCCO3)cc12 (stereo not drawn) [Example 156, 2-[(oxolan-2-yl)methyl]-7-(1H-pyrazol-5-yl)-1H-pyrrolo[3,2-c]quinolin-4-amine] | > 100 µM | 0.31 µM | > 100 µM | – | – | – | –
8 | Nc1nc2cc(-c3cc[nH]n3)ccc2c2cn(CCNCc3ccccn3)nc12 [Example 112] | > 100 µM | 2.5 µM | > 100 µM | – | – | – | –
9 | CC(CCO)n1cc2c(n1)c(N)nc1cc(-c3ccn[nH]3)ccc12 (stereo not drawn) [Example 454] | – | – | – | – | > 100 µM | 0.37 µM | > 100 µM
10 | CC(=O)NCCn1cc2c(n1)c(N)nc1cc(-c3cccs3)ccc12 [Example 130] | > 100 µM | 0.64 µM | > 100 µM | – | – | – | –
11 | Nc1nc2cc(-c3cc[nH]n3)ccc2c2cn(CCCN3CCOCC3)nc12 [Example 27] | > 100 µM | 0.43 µM | > 100 µM | – | – | – | –
12 | COCCCn1ncc2c(N)nc3cc(-c4cc[nH]n4)ccc3c21 [Example 228] | > 100 µM | 0.3 µM | > 100 µM | – | – | – | –
13 | Nc1nc2cc(-c3cc[nH]n3)ccc2c2cn(CC(=O)NC3CCC3)nc12 [Example 548] | – | – | – | – | > 100 µM | 0.78 µM | > 100 µM
14 | CC(C(=O)NC1CCC1)n1cc2c(N)nc3cc(-c4ccn[nH]4)ccc3c2n1 (stereo not drawn) [Example 562] | – | – | – | – | > 100 µM | 0.7 µM | > 100 µM
15 | Nc1nc2cc(-c3cc[nH]n3)ccc2c2cn(Cc3ccncc3)nc12 [Example 165] | > 100 µM | 0.14 µM | 20 to 100 µM | – | – | – | –
16 | Nc1nc2cc(-c3ccn[nH]3)ccc2c2nn(CCNC(=O)c3ccccn3)nc12 [Example 159] | > 100 µM | 0.68 µM | > 100 µM | – | – | – | –
17 | COC1CN(C(=O)Cn2cc3c(n2)c(N)nc2cc(-c4cc[nH]n4)ccc23)C1 [Example 546] | – | – | – | – | > 100 µM | 3.27 µM | > 100 µM
18 | CCNCc1cc2c(N)nc3cc(-c4cc[nH]n4)ccc3c2[nH]1 [Example 420] | – | – | – | – | > 100 µM | 0.51 µM | > 100 µM
19 | CN(C)C(=O)Cn1cc2c(N)nc3cc(-c4cc[nH]n4)ccc3c2n1 [Example 458, 2-(4-amino-7-(1H-pyrazol-5-yl)-2H-pyrazolo[4,3-c]quinolin-2-yl)-N,N-dimethylacetamide.TFA] | – | – | – | – | > 100 µM | 0.16 µM | > 100 µM
20 | Nc1nc2cc(-c3cc[nH]n3)ccc2c2nn(C3CCCCC3O)cc12 (single isomer, unassigned) [Example 318] | > 100 µM | – | > 100 µM | 3.09 µM | – | – | –
21 | Nc1nc2cc(-c3cc[nH]n3)ccc2c2cn(CCNC(=O)c3ncc(Cl)cc3F)nc12 [Example 85] | 20 to 100 µM | 0.4 µM | 20 to 100 µM | – | – | – | –
22 | NC(=O)CCCn1cc2c(N)nc3cc(-c4cc[nH]n4)ccc3c2n1 [Example 502] | – | – | – | – | > 100 µM | 1.68 µM | > 100 µM
23 | Nc1nc2cc(-c3ccn[nH]3)ccc2c2[nH]c(CCO)cc12 [Example 442] | – | – | – | – | > 100 µM | 0.19 µM | > 100 µM
24 | Cc1nc(C(=O)NCCn2cc3c(n2)c(N)nc2cc(-c4cc[nH]n4)ccc23)c(C)o1 [Example 68] | > 100 µM | 0.37 µM | 20 to 100 µM | – | – | – | –
25 | Nc1nc2cc(-c3cc[nH]n3)ccc2c2c1cnn2C1COC1 [Example 242] | > 100 µM | 0.68 µM | > 100 µM | – | – | – | –
26 | CC(C(=O)N1CCS(=O)(=O)CC1)n1cc2c(N)nc3cc(-c4ccn[nH]4)ccc3c2n1 (stereo not drawn) [Example 575] | – | – | – | – | > 100 µM | 19.7 µM | > 100 µM
27 | CN(C)C(=O)CCn1cc2c(N)nc3cc(-c4cc[nH]n4)ccc3c2n1 [Example 506] | – | – | – | – | > 100 µM | 1.4 µM | > 100 µM
28 | CC(C)(Cn1cc2c(N)nc3cc(-c4ccn[nH]4)ccc3c2n1)NC(=O)C1CCCO1 (stereo not drawn) [Example 262] | > 100 µM | 0.75 µM | > 100 µM | – | – | – | –
